Results on 25 compounds are retold here after patent US11970494B2, “6-heteroaryloxy benzimidazoles and azabenzimidazoles as JAK2 inhibitors” (Ajax Therapeutics, Inc., priority 2021, dated 2024).

The first assay deals with T1, JAK2 (JH1 domain-catalytic, Y1007F,Y1008F) kinase (Homo sapiens, UniProt O60674, Y1007F/Y1008F).
T1 construct: made in house; host or cells: transiently transfected HEK293 cells
T1 sequence (O60674 849-1124 Y1007F/Y1008F limits assumed): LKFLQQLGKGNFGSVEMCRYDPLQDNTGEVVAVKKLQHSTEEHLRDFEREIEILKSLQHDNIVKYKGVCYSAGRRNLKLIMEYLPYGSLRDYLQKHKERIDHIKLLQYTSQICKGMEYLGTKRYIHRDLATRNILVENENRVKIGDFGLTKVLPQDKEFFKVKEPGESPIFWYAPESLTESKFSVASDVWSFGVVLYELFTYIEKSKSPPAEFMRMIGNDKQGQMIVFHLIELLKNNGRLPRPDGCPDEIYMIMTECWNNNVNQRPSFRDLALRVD
The experiment in a line: JAK2 Binding Assay (JAK2 JH1 Domain Binding Assay).
Settings: not given
The Kd is a measure of binding affinity in units of concentration. The compound `Cn1cc(C(F)(F)F)cc(Nc2nc3ncc(Oc4ccnc(NC(=O)CF)c4)c(C#N)c3n2C)c1=O` [Example I-84, N-(4-((7-cyano-1-methyl-2-((1-methyl-2-oxo-5-(trifluoromethyl)-1,2-dihydropyridin-3-yl)amino)-1H-imidazo[4,5-b]pyridin-6-yl)oxy)pyridin-2-yl)-2-fluoroacetamide] displayed a Kd of less than 10 nM.

The same assay, now with this note: JAK2 JH1 domain binding, qPCR detection; read-out: JAK2 Kd.
Take `[2H]C([2H])([2H])n1cc(C(F)(F)F)cc(Nc2nc3ncc(Oc4ccnc(NC(C)=O)c4)c(Cl)c3n2C)c1=O` [Example I-82, N-(4-((7-chloro-1-methyl-2-((1-(methyl-d3)-2-oxo-5-(trifluoromethyl)-1,2-dihydropyridin-3-yl)amino)-1H-imidazo[4,5-b]pyridin-6-yl)oxy)pyridin-2-yl)acetamide]: the Kd was less than 10 nM.
For the compound `[2H]C([2H])([2H])n1cc(C(F)(F)F)cc(Nc2nc3ncc(Oc4ccnc(NC(C)=O)c4)c(C#N)c3n2C)c1=O` [Example I-83, N-(4-((7-cyano-1-methyl-2-((1-(methyl-d3)-2-oxo-5-(trifluoromethyl)-1,2-dihydropyridin-3-yl)amino)-1H-imidazo[4,5-b]pyridin-6-yl)oxy)pyridin-2-yl)acetamide], the Kd was less than 10 nM.
The same measure, in the same setting: the value for `COCCNCC(=O)Nc1cc(Oc2cnc3nc(Nc4cc(C(F)(F)F)cn(C)c4=O)n(C)c3c2Cl)ccn1` [Example I-85, N-(4-((7-chloro-1-methyl-2-((1-methyl-2-oxo-5-(trifluoromethyl)-1,2-dihydropyridin-3-yl)amino)-1H-imidazo[4,5-b]pyridin-6-yl)oxy)pyridin-2-yl)-2-((2-methoxyethyl)amino)acetamide] was less than 10 nM; that for `Cn1cc(C(F)(F)F)cc(Nc2nc3ncc(Oc4ccnc(NC(=O)CO)c4)c(Cl)c3n2C)c1=O` [Example I-86, N-(4-((7-chloro-1-methyl-2-((1-methyl-2-oxo-5-(trifluoromethyl)-1,2-dihydropyridin-3-yl)amino)-1H-imidazo[4,5-b]pyridin-6-yl)oxy)pyridin-2-yl)hydroxyacetamide] was less than 10 nM; that for `Cn1cc(C(F)(F)F)cc(Nc2nc3ncc(Oc4ccnc(NC(=O)CNCCF)c4)c(Cl)c3n2C)c1=O` [Example I-87, N-(4-((7-chloro-1-methyl-2-((1-methyl-2-oxo-5-(trifluoromethyl)-1,2-dihydropyridin-3-yl)amino)-1H-imidazo[4,5-b]pyridin-6-yl)oxy)pyridin-2-yl)-2-((2-fluoroethyl)amino)acetamide] was less than 10 nM.
The same measure, in the same setting: the value for `Cn1c(Nc2cc(C(F)(F)F)cn(CCO)c2=O)nc2ncc(Oc3ccnc(NC(=O)C4CC4)c3)c(C#N)c21` [Example I-89, N-(4-((7-cyano-2-((1-(2-hydroxyethyl)-2-oxo-5-(trifluoromethyl)-1,2-dihydropyridin-3-yl)amino)-1-methyl-1H-imidazo[4,5-b]pyridin-6-yl)oxy)pyridin-2-yl)cyclopropanecarboxamide] was less than 10 nM; that for `CC(=O)Nc1cc(Oc2cnc3nc(Nc4cc5n(n4)CCCC5(F)F)n(C)c3c2Cl)ccn1` [Example I-92, N-(4-((7-chloro-2-((4,4-difluoro-4,5,6,7-tetrahydropyrazolo[1,5-a]pyridin-2-yl)amino)-1-methyl-1H-imidazo[4,5-b]pyridin-6-yl)oxy)pyridin-2-yl)acetamide] was less than 10 nM.
Still for that read-out and setting: the value for `CC(=O)Nc1cc(Oc2cnc3nc(Nc4cc5n(n4)CCCC5(F)F)n(C)c3c2C#N)ccn1` [Example I-93, N-(4-((7-cyano-2-((4,4-difluoro-4,5,6,7-tetrahydropyrazolo[1,5-a]pyridin-2-yl)amino)-1-methyl-1H-imidazo[4,5-b]pyridin-6-yl)oxy)pyridin-2-yl)acetamide] was less than 10 nM; that for `CC(=O)Nc1cc(Oc2cnc3nc(Nc4ccc(CN(C)C)c(C(F)(F)F)c4)n(C)c3c2Cl)ccn1` [Example I-94, N-(4-((7-chloro-2-((4-((dimethylamino)methyl)-3-(trifluoromethyl)phenyl)amino)-1-methyl-1H-imidazo[4,5-b]pyridin-6-yl)oxy)pyridin-2-yl)acetamide] was less than 10 nM.
With `CC(=O)Nc1cc(Oc2cnc3nc(Nc4cc(OC[C@@H]5CCCN5C)cc(C(F)(F)F)c4)n(C)c3c2Cl)ccn1` [Example I-96, (S)-N-(4-((7-chloro-1-methyl-2-((3-((1-methylpyrrolidin-2-yl)methoxy)-5-(trifluoromethyl)phenyl)amino)-1H-imidazo[4,5-b]pyridin-6-yl)oxy)pyridin-2-yl)acetamide], the Kd was less than 10 nM.
Same read-out and setting: the value for `CC(=O)Nc1cc(Oc2cnc3nc(Nc4cc(OC[C@H]5CCCN5C)cc(C(F)(F)F)c4)n(C)c3c2Cl)ccn1` [Example I-97, (R)-N-(4-((7-chloro-1-methyl-2-((3-((1-methylpyrrolidin-2-yl)methoxy)-5-(trifluoromethyl)phenyl)amino)-1H-imidazo[4,5-b]pyridin-6-yl)oxy)pyridin-2-yl)acetamide] was less than 10 nM.
Still for that read-out and setting: the value for `CC(=O)Nc1cc(Oc2cnc3nc(Nc4cc(C(F)(F)F)n(C5CC6(COC6)C5)n4)n(C)c3c2Cl)ccn1` [Example I-98, N-(4-((2-((1-(2-oxaspiro[3.3]heptan-6-yl)-5-(trifluoromethyl)-1H-pyrazol-3-yl)amino)-7-chloro-1-methyl-1H-imidazo[4,5-b]pyridin-6-yl)oxy)pyridin-2-yl)acetamide] was less than 10 nM; that for `CC(=O)Nc1cc(Oc2cnc3nc(Nc4cc(O[C@H]5CCN(C)C5)cc(C(F)(F)F)c4)n(C)c3c2Cl)ccn1` [Example I-99, (S)-N-(4-((7-chloro-1-methyl-2-((3-((1-methylpyrrolidin-3-yl)oxy)-5-(trifluoromethyl)phenyl)amino)-1H-imidazo[4,5-b]pyridin-6-yl)oxy)pyridin-2-yl)acetamide] was less than 10 nM.
In the case of `CC(=O)Nc1cc(Oc2cnc3nc(Nc4cc(O[C@@H]5CCN(C)C5)cc(C(F)(F)F)c4)n(C)c3c2Cl)ccn1` [Example I-100, (R)-N-(4-((7-chloro-1-methyl-2-((3-((1-methylpyrrolidin-3-yl)oxy)(trifluoromethyl)phenyl)amino)-1H-imidazo[4,5-b]pyridin-6-yl)oxy)pyridin-2-yl)acetamide], the Kd was less than 10 nM.
Same read-out and setting: the value for `CC(=O)Nc1cc(Oc2cnc3nc(Nc4cc(COC5CN(C)C5)cc(C(F)(F)F)c4)n(C)c3c2Cl)ccn1` [Example I-101, N-(4-((7-chloro-1-methyl-2-((3-(((1-methylazetidin-3-yl)oxy)methyl)-5-(trifluoromethyl)phenyl)amino)-1H-imidazo[4,5-b]pyridin-6-yl)oxy)pyridin-2-yl)acetamide] was less than 10 nM; that for `CC(=O)Nc1cc(Oc2cnc3nc(Nc4cc(OC5CN(C)C5)cc(C(F)(F)F)c4)n(C)c3c2Cl)ccn1` [Example I-103, N-(4-((7-chloro-1-methyl-2-((3-((1-methylazetidin-3-yl)oxy)-5-(trifluoromethyl)phenyl)amino)-1H-imidazo[4,5-b]pyridin-6-yl)oxy)pyridin-2-yl)acetamide] was less than 10 nM.
Same read-out and setting: the value for `CC(=O)Nc1cc(Oc2cnc3nc(Nc4cc(C(C)(C)C(F)(F)F)on4)n(C)c3c2C#N)ccn1` [Example I-104, N-(4-((7-cyano-1-methyl-2-((5-(1,1,1-trifluoro-2-methylpropan-2-yl)isoxazol-3-yl)amino)-1H-imidazo[4,5-b]pyridin-6-yl)oxy)pyridin-2-yl)acetamide] was greater than 5000 nM.
In the case of `CC(=O)Nc1cc(Oc2cnc3nc(Nc4ccc(CN(C)C)c(C(F)(F)F)c4)n(C)c3c2C#N)ccn1` [Example I-105, N-(4-((7-cyano-2-((4-((dimethylamino)methyl)-3-(trifluoromethyl)phenyl)amino)-1-methyl-1H-imidazo[4,5-b]pyridin-6-yl)oxy)pyridin-2-yl)acetamide], the dissociation constant (Kd) was less than 10 nM.
The same measure, in the same setting: the value for `CC(=O)Nc1cc(Oc2cnc3nc(Nc4cc(C(F)(F)F)n(C5CC6(COC6)C5)n4)n(C)c3c2C#N)ccn1` [Example I-106, N-(4-((2-((1-(2-oxaspiro[3.3]heptan-6-yl)-5-(trifluoromethyl)-1H-pyrazol-3-yl)amino)-7-cyano-1-methyl-1H-imidazo[4,5-b]pyridin-6-yl)oxy)pyridin-2-yl)acetamide] was 10 to 50 nM; that for `COCC(=O)Nc1cc(Oc2cnc3nc(Nc4cc(C(F)(F)F)n(C5CC6(CCOCC6)C5)n4)n(C)c3c2Cl)ccn1` [Example I-107, N-(4-((2-((1-(7-oxaspiro[3.5]nonan-2-yl)-5-(trifluoromethyl)-1H-pyrazol-3-yl)amino)-7-chloro-1-methyl-1H-imidazo[4,5-b]pyridin-6-yl)oxy)pyridin-2-yl)-2-methoxyacetamide] was 10 to 50 nM.
Turning to `COCC(=O)Nc1cc(Oc2cnc3nc(Nc4cc(C(F)(F)F)n(C5CC6(CCOCC6)C5)n4)n(C)c3c2C#N)ccn1` [Example I-110, N-(4-((2-((1-(7-oxaspiro[3.5]nonan-2-yl)-5-(trifluoromethyl)-1H-pyrazol-3-yl)amino)-7-cyano-1-methyl-1H-imidazo[4,5-b]pyridin-6-yl)oxy)pyridin-2-yl)-2-methoxyacetamide], the Kd is less than 10 nM.
With `CC(=O)Nc1cc(Oc2cnc3nc(Nc4cc(N5CCCC5)nc(C(F)(F)F)c4)n(C)c3c2Cl)ccn1` [Example I-111, N-(4-((7-chloro-1-methyl-2-((2-(pyrrolidin-1-yl)-6-(trifluoromethyl)pyridin-4-yl)amino)-1H-imidazo[4,5-b]pyridin-6-yl)oxy)pyridin-2-yl)acetamide], the Kd lay within 50 to 1000 nM.
For `CC(=O)Nc1cc(Oc2cnc3nc(Nc4cc5n(n4)CCOC5(C)C)n(C)c3c2C#N)ccn1` [Example I-112, N-(4-((7-cyano-2-((4,4-dimethyl-6,7-dihydro-4H-pyrazolo[5,1-c][1,4]oxazin-2-yl)amino)-1-methyl-1H-imidazo[4,5-b]pyridin-6-yl)oxy)pyridin-2-yl)acetamide], the Kd is less than 10 nM.
On the same count and under the same terms, the value for `CC(=O)Nc1cc(Oc2cnc3nc(Nc4cc5n(n4)CCC54CCC4)n(C)c3c2C#N)ccn1` [Example I-113, N-(4-((7-cyano-2-((5′,6′-dihydrospiro[cyclobutane-1,4′-pyrrolo[1,2-b]pyrazol]-2′-yl)amino)-1-methyl-1H-imidazo[4,5-b]pyridin-6-yl)oxy)pyridin-2-yl)acetamide] was less than 10 nM.
